Assays:
Test in all cases: COMPOUND A In Vitro Assay
Assay type in all cases: cell-based
ABC-1 = conditions: Homo sapiens, Lung, TP53 Mutant
In short: (§1)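 Each human tumour-derived line is exposed to COMPOUND A, an MDM2 antagonist, in a high-throughput format, and an IC50 is generated. Baseline mRNA was profiled by RNA sequencing before treatment.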

BT-20 = conditions: Homo sapiens, Breast, mammary gland, TP53 Mutant
In short: as §1

BxPC-3 = conditions: Homo sapiens, Pancreas, TP53 Mutant
In short: as §1

C-33 A = conditions: Homo sapiens, Cervix, TP53 Mutant
In short: as §1

COLO 320DM = conditions: Homo sapiens, Intestine, large, colon, TP53 Mutant
In short: as §1

Capan-1 = conditions: Homo sapiens, Pancreas, TP53 Mutant
In short: as §1

F-36P = conditions: Homo sapiens, Myeloblast, TP53 Mutant
In short: as §1

HCC1143 = conditions: Homo sapiens, Breast, mammary gland, TP53 Mutant
In short: as §1

HCT-8 = conditions: Homo sapiens, Intestine, large, colon, TP53 Wild type
In short: as §1

Hep3B = conditions: Homo sapiens, Liver, TP53 Mutant
In short: as §1

HepG2 = conditions: Homo sapiens
In short: as §1

HuH-28 = conditions: Homo sapiens, Gall bladder, TP53 Mutant
In short: as §1

Huh-7 = conditions: Homo sapiens, Liver, TP53 Mutant
In short: as §1

KMM-1 = conditions: Homo sapiens, Lymphocyte, TP53 Mutant
In short: as §1

KMS-11 = conditions: Homo sapiens, Lymphocyte, TP53 Wild type
In short: as §1

LS513 = conditions: Homo sapiens
In short: as §1

MDA-MB-361 = conditions: Homo sapiens, Breast, mammary gland, TP53 Mutant
In short: as §1

MIA PaCa-2 = conditions: Homo sapiens, Pancreas, TP53 Mutant
In short: as §1

NCI-H1048 = conditions: Homo sapiens, Lung, TP53 Mutant
In short: as §1

NCI-H1299 = conditions: Homo sapiens, Lung, TP53 Mutant
In short: as §1

NCI-H1666 = conditions: Homo sapiens, Lung, TP53 Wild type
In short: as §1

NCI-H1975 = conditions: Homo sapiens, Lung, TP53 Mutant
In short: as §1

NCI-H209 = conditions: Homo sapiens, Lung, TP53 Mutant
In short: as §1

NIH:OVCAR-3 = conditions: Homo sapiens, Ovary, TP53 Mutant
In short: as §1

NKM-1 = conditions: Homo sapiens
In short: as §1

RT4 = conditions: Homo sapiens, RT-4, Urinary, bladder, TP53 Wild type
In short: as §1

SBC-5 = conditions: Homo sapiens, Lung, TP53 Mutant
In short: as §1

SCaBER = conditions: Homo sapiens, Urinary, bladder, TP53 Mutant
In short: as §1

SK-BR-3 = conditions: Homo sapiens, Pleura, TP53 Mutant
In short: as §1

SK-ES-1 = conditions: Homo sapiens, SK-ES1, Bone, TP53 Mutant
In short: as §1

SK-MEL-1 = conditions: Homo sapiens
In short: as §1

SK-N-F1 = conditions: Homo sapiens, Brain, TP53 Mutant
In short: as §1

SNU-16 = conditions: Homo sapiens, Stomach, TP53 Mutant
In short: as §1

SUM-44PE = conditions: Homo sapiens, Breast, TP53 Wild type
In short: as §1

U-138 MG = conditions: Homo sapiens, U138-MG, Brain, TP53 Mutant
In short: as §1

U-2197 = conditions: Homo sapiens, Skin, hypodermis, subcutaneous, TP53 Mutant
In short: as §1

In the case of `CCOc1cc(C(C)(C)C)ccc1C1=N[C@@](C)(c2ccc(Cl)cc2)[C@@](C)(c2ccc(Cl)cc2)N1C(=O)N1CCN(CCCS(C)(=O)=O)CC1` [COMPOUND A], the IC50 (ABC-1) is reported as 9.9 µM, the IC50 (BT-20) is reported as 3.6 µM and the IC50 (BxPC-3) is reported as 18 µM. The IC50 (C-33 A) was 18 µM, the IC50 (COLO 320DM) was 12 µM and the IC50 (Capan-1) was 20 µM. For the same compound, the IC50 (F-36P) was 23 µM, the IC50 (HCC1143) was 12 µM and the IC50 (HCT-8) was 16 µM. It also gave an IC50 (Hep3B) of 6.7 µM, an IC50 (HepG2; HepG2, HepG2, Liver, TP53 Wild type) of 0.18 µM and an IC50 (HepG2; HepG2, HepG2 cells) of 0.2 µM. For the same compound, the IC50 (HuH-28) was 15 µM, the IC50 (Huh-7) was 10 µM and the IC50 (KMM-1) was 19 µM. For the same compound, the IC50 (KMS-11) was 12 µM, the IC50 (LS513; LS-513, LS513, Intestine, large, caecum, TP53 Wild type) was 0.49 µM and the IC50 (LS513; LS-513, LS513 cells) was 0.5 µM. For the same compound, the IC50 (MDA-MB-361) was 21 µM, the IC50 (MIA PaCa-2) was 19 µM and the IC50 (NCI-H1048) was 9.4 µM. For the same compound, the IC50 (NCI-H1299) was 15 µM, the IC50 (NCI-H1666) was 13 µM and the IC50 (NCI-H1975) was 16 µM. The IC50 (NCI-H209) was 11 µM, the IC50 (NIH:OVCAR-3) was 17 µM and the IC50 (NKM-1; NKM-1, Lymphocyte, TP53 Wild type) was 0.32 µM. For the same compound, the IC50 (NKM-1; NKM-1 cells) was 0.3 µM, the IC50 (RT4) was 2.4 µM and the IC50 (SBC-5) was 18 µM. For the same compound, the IC50 (SCaBER) was 8.5 µM, the IC50 (SK-BR-3) was 21 µM and the IC50 (SK-ES-1) was 25 µM. For the same compound, the IC50 (SK-MEL-1; SK-MEL-1, SK-MEL-1, Skin, TP53 Wild type) was 0.75 µM, the IC50 (SK-MEL-1; SK-MEL-1, SK-MEL-1 cells) was 0.8 µM and the IC50 (SK-N-F1) was 17 µM. It also gave an IC50 (SNU-16) of 10 µM, an IC50 (SUM-44PE) of 3 µM and an IC50 (U-138 MG) of 29 µM. It also gave an IC50 (U-2197) of 22 µM.

From US9657351B2, “MRNA-based gene expression for personalizing patient cancer therapy with an MDM2 antagonist” (Hoffmann-La Roche Inc., priority 2013, dated 2017)
